Columns and labels:
[1] = system: human buccal cell line (T146); test: In vitro viability of human buccal cell line (T146), dose-response for safety/toxicity; format: cell-based; conditions: dose-response of sodium suramin, FIG. 8
From the text: FIG. 8: In vitro viability of human buccal cell line (T146): dose-response of sodium suramin for safety/toxicity.
Suramin alone is amorphous or liquid-crystalline (FIGS. 5-7) and is safe in a human cell line (FIG. 8).

[2] = system: chronic wounds in diabetic and healthy mice; test: Wound healing in chronic wounds in diabetic (ob/ob) and healthy mice; format: in vivo
Procedure: FIG. 25: suramin treatment results in increased granulation tissue and wound contraction. A) control. B) 0.15 μg surmain-treated; C) 1.5 μg surmain-treated; and d) 15 μg surmain-treated.

[3] = mice, 0.15, 1.5 and 15 μg suramin-treated vs control, FIG. 25

Cc1ccc(C(=O)Nc2ccc(S(=O)(=O)O)c3cc(S(=O)(=O)O)cc(S(=O)(=O)O)c23)cc1NC(=O)c1cccc(NC(=O)Nc2cccc(C(=O)Nc3cc(C(=O)Nc4ccc(S(=O)(=O)O)c5cc(S(=O)(=O)O)cc(S(=O)(=O)O)c45)ccc3C)c2)c1 [suramin]
safety in a human cell line (in vitro viability) [1]: safe
granulation tissue [2, 3]: increased
wound contraction [2, 3]: increased
wound healing relative to controls ([2]; ob/ob mice, suramin treatment at different concentrations, FIG. 24): accelerated wound healing

— patent publication US11110060B2, “Compositions and methods for delivering pharmaceutical agents” (Arizona Board of Regents on Behalf of the University of …, priority 2017, dated 2021)
